In PubChem BioAssay AID248 (DTP/NCI, 2004):
Values joined by “and” are separate entries in the source; they are usually repeats but may differ in a detail not shown here. Equal values may be shown once. Toxic doses and inconclusive results are not listed. Cut-off read from the data, not from the text of the source: active = T/C of 150% or more; inactive = T/C below 125%.

Tested on: L1210 leukemia ip in BDF1 mice, survival T/C
Assay: NCI In Vivo Anticancer Drug Screen. Data for tumor model L1210 Leukemia (intraperitoneal) in B6D2F1 (BDF1) mice
Conditions: endpoint: mean survival time, higher = longer survival
Summary of the method: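 Transplanted-tumor mice were given test agent; controls received vehicle only. Survival readings from the two groups were divided (treated over control).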

[1] = dose: 100.0 mg/kg/injection, schedule: Q01DX009 (ip), vehicle: saline with Tween-80
[2] = dose: 200.0 mg/kg/injection, schedule: Q01DX009 (ip), vehicle: saline with Tween-80
[3] = dose: 400.0 mg/kg/injection, schedule: Q01DX009 (ip), vehicle: saline with Tween-80
[4] = dose: 100.0 mg/kg/injection, schedule: Q01DX001 (ip), vehicle: saline
[5] = dose: 200.0 mg/kg/injection, schedule: Q01DX001 (ip), vehicle: saline
[6] = dose: 100.0 mg/kg/injection, schedule: Q01DX001 (ip), vehicle: saline with Tween-80
[7] = dose: 200.0 mg/kg/injection, schedule: Q01DX001 (ip), vehicle: saline with Tween-80
[8] = dose: 400.0 mg/kg/injection, schedule: Q01DX001 (ip), vehicle: saline with Tween-80
[9] = dose: 50.0 mg/kg/injection, schedule: Q01DX009 (ip), vehicle: saline with Tween-80
[10] = dose: 100.0 mg/kg/injection, schedule: Q01DX009 (ip), vehicle: saline
[11] = dose: 200.0 mg/kg/injection, schedule: Q01DX009 (ip), vehicle: saline
[12] = dose: 100.0 mg/kg/injection, schedule: Q04DX003 (ip), vehicle: saline with Tween-80
[13] = dose: 100.0 mg/kg/injection, schedule: Q04DX003 (ip), vehicle: Klucel (hydroxypropylcellulose) (HPC)
[14] = dose: 200.0 mg/kg/injection, schedule: Q04DX003 (ip), vehicle: Klucel (hydroxypropylcellulose) (HPC)
[15] = dose: 400.0 mg/kg/injection, schedule: Q04DX003 (ip), vehicle: Klucel (hydroxypropylcellulose) (HPC)
[16] = dose: 12.5 mg/kg/injection, schedule: Q01DX009 (ip), vehicle: saline
[17] = dose: 25.0 mg/kg/injection, schedule: Q01DX009 (ip), vehicle: saline
[18] = dose: 200.0 mg/kg/injection, schedule: Q04DX003 (ip), vehicle: saline with Tween-80
[19] = dose: 50.0 mg/kg/injection, schedule: Q01DX009 (ip), vehicle: saline

Measured: T/C

CC[N+](C)(CC)CCCN1C(=O)c2ccccc2S1(=O)=O
inactive: dose: 22.0 mg/kg/injection, schedule: Q01DX Z (ip), vehicle: methylcellulose (MC) 94 % of control | dose: 33.0 mg/kg/injection, schedule: Q01DX Z (ip), vehicle: methylcellulose (MC) 96 % of control | dose: 50.0 mg/kg/injection, schedule: Q01DX Z (ip), vehicle: methylcellulose (MC) 91 % of control

O=S(=O)(Cl)c1ccc(F)cc1
inactive: [1] 98 % of control | [2] 96 % of control | [3] 90 % of control

COc1ccc(OCCC(=O)O)cc1
inactive: [4] 90 % of control | [5] 93 % of control

COc1ccc2c(c1OC)CC[N+]1=C3CCCCC3=C(N)CC21 (stereo not given)
inactive: [6] 97 % of control | [7] 97 % of control | [8] 96 % of control

CCOC(=O)c1ccc(NP(=S)(OCC)OCC)cc1
inactive: [9] 94 % of control | [1] 94 % of control | [2] 96 % of control

COc1ccc(Cl)cc1NC(=O)COc1cc(Cl)c(Cl)cc1Cl
inactive: [9] 101 % of control | [1] 96 % of control | [2] 104 % of control

CCOC(=O)NC(=S)[S][Sb]([S]C(=S)NC(=O)OCC)[S]c1nc2ccc(N=Nc3ccc(NS(=O)(=O)c4ccc(NC(=O)C(Sc5ncnc6nc[nH]c56)SC5N=C=Nc6nc[nH]c65)cc4)cc3)cc2s1 (stereo not given)
inactive: dose: 75.0 mg/kg/injection, schedule: Q04DX003 (ip), vehicle: saline 100 % of control | dose: 150.0 mg/kg/injection, schedule: Q04DX003 (ip), vehicle: saline 91 % of control | dose: 300.0 mg/kg/injection, schedule: Q04DX003 (ip), vehicle: saline 98 % of control

COc1ccc(OC)c(NC(=O)OCC(Cl)(Cl)Cl)c1
inactive: [10] 109 % of control | [11] 104 % of control | dose: 400.0 mg/kg/injection, schedule: Q01DX009 (ip), vehicle: saline 98 % of control

CC1=NN(c2ccccc2)C(=O)C1(Br)Br
inactive: [12] 96 % of control

CC(C)=CCN(CC=C(C)C)CCC(C#N)(c1ccc2ccccc2c1)C(C)C (stereo not given)
inactive: dose: 50.0 mg/kg/injection, schedule: Q01DX009 (ip), vehicle: Klucel (hydroxypropylcellulose) (HPC) 106 % of control | dose: 100.0 mg/kg/injection, schedule: Q01DX009 (ip), vehicle: Klucel (hydroxypropylcellulose) (HPC) 95 % of control | [13] 102 % of control | [14] 98 % of control

O=C(O)CC1CCC(NC(=O)NCCCl)CC1 (stereo not given)
inactive: [6] 105 % of control | [7] 102 % of control

Cc1c(C)c2c(C#N)c3ccccc3nc2c2ccccc12
inactive: dose: 50.0 mg/kg/injection, schedule: Q04DX003 (ip), vehicle: Klucel (hydroxypropylcellulose) (HPC) 102 % of control | [13] 102 % of control | [14] 107 % of control | [15] 103 % of control

C[S+](C)CC(=O)c1ccc(Br)cc1
inactive: [13] 97 % of control | [14] 95 % of control | [15] 101 % of control

CC1(C)N=C(N)N=C(N)N1c1ccc2ccccc2c1
inactive: dose: 5.0 mg/kg/injection, schedule: Q01DX001 (ip), vehicle: other 105 % of control | dose: 10.0 mg/kg/injection, schedule: Q01DX001 (ip), vehicle: other 102 % of control | dose: 20.0 mg/kg/injection, schedule: Q01DX001 (ip), vehicle: other 96 % of control | dose: 25.0 mg/kg/injection, schedule: Q01DX015 (ip), vehicle: other 97 % of control | dose: 40.0 mg/kg/injection, schedule: Q01DX001 (ip), vehicle: other 105 % of control | dose: 50.0 mg/kg/injection, schedule: Q01DX015 (ip), vehicle: other 107 % of control | dose: 80.0 mg/kg/injection, schedule: Q01DX001 (ip), vehicle: other 100 % of control | dose: 100.0 mg/kg/injection, schedule: Q01DX001 (ip), vehicle: other 104 % of control

CC(CCc1ccccc1)N(C)C(=O)CNC(=O)CN1C(=O)c2ccccc2C1=O (stereo not given)
inactive: [4] 96 % of control | [5] 92 % of control

CCN(CC)Cc1ccc(N)cc1
inactive: [16] 100 % of control | [17] 110 % of control

CCN(CC)c1ccc(NC(=O)NC(C)C)cc1
inactive: [9] 101 % of control | [1] 108 % of control | [12] 105 % of control | [2] 97 % of control | [18] 103 % of control

CC(C)[CH2][Sn](=[O])[OH]
inactive: [19] 96 % of control | [10] 100 % of control | [11] 100 % of control

CC12C(=O)OC(=O)C1C1C=CC2CC1 (stereo not given)
inactive: [12] 101 % of control | [18] 98 % of control | dose: 400.0 mg/kg/injection, schedule: Q04DX003 (ip), vehicle: saline with Tween-80 101 % of control

CC1CC2=C(CCCO2)C(C)C1 (stereo not given)
inactive: [5] 95 % of control

CNCC(C)CN1CCCCCc2ccccc21 (stereo not given)
inactive: dose: 3.12 mg/kg/injection, schedule: Q01DX009 (ip), vehicle: saline 100 % of control | dose: 6.25 mg/kg/injection, schedule: Q01DX009 (ip), vehicle: saline 93 % of control | [16] 100 % of control | [17] 97 % of control | [19] 104 % of control

COC(=O)C1=CCC(C2(C)CO2)CC1 (stereo not given)
inactive: [13] 104 % of control | [14] 109 % of control | [15] 104 % of control

CCCCC/C=C/C/C=C/CCCCCCCC(=O)N1CCOCC1
inactive: [6] 94 % of control | [7] 96 % of control | [8] 97 % of control

Cc1cc(OC(=O)Nc2cccc(Cl)c2)ccc1Cl
inactive: [1] 91 % of control | [2] 93 % of control | [3] 95 % of control

CC(C)(C)OC(=O)NC(Cc1cncn1Cc1ccccc1)C(=O)NC(Cc1c[nH]c2ccccc12)C(=O)OCc1ccccc1 (stereo not given)
inactive: dose: 100.0 mg/kg/injection, schedule: Q04DX003 (ip), vehicle: saline 97 % of control | dose: 200.0 mg/kg/injection, schedule: Q04DX003 (ip), vehicle: saline 93 % of control | dose: 400.0 mg/kg/injection, schedule: Q04DX003 (ip), vehicle: saline 95 % of control

CCOC(=O)C(=CNc1ccc(OC)cc1[N+](=O)[O-])C(=O)OCC
inactive: dose: 12.5 mg/kg/injection, schedule: Q01DX009 (ip), vehicle: saline with Tween-80 97 % of control | dose: 25.0 mg/kg/injection, schedule: Q01DX009 (ip), vehicle: saline with Tween-80 90 % of control | [1] 94 % of control and 90 % of control | dose: 100.0 mg/kg/injection, schedule: Q04DX002 (ip), vehicle: saline with Tween-80 95 % of control | [2] 105 % of control | dose: 200.0 mg/kg/injection, schedule: Q04DX002 (ip), vehicle: saline with Tween-80 88 % of control | dose: 400.0 mg/kg/injection, schedule: Q04DX002 (ip), vehicle: saline with Tween-80 92 % of control
